How the values were obtained:
[1] = system: patients suffering from schizophrenia; experiment: MMN and P300 evoked responses (oddball sequence) in schizophrenia patients; format: in vivo, Human
Description: The test described above was used to study the effect of the test compound on cognition in patients suffering from schizophrenia. Prior to testing, the patients were dosed with: 1 mg of the test compound daily, 0.3 mg of the test compound daily or were administered a placebo for 20 days. Subjects were tested as described below.
The MMN and P300 components were elicited during the so-called oddball sequence. The stimulus sequence was a series of lower (500 Hz) and higher (1000 Hz) pitched pure tones presented at a rate of 1 tone per 0.6 sec. The tones were 50 msec in duration, 50 dB above hearing level, and randomly interspersed. The higher pitched tone was the oddball event. Across the series of 600 tones, it occurred at a probability of 0.2. The other tone occurred at the complementary probability of 0.8. Patients were instructed to ignore the tones and instead attend to a magazine held in the lap.
During the task, EEG and EOG activity were digitized at a rate of 500 Hz per channel for 50 msec preceding and 500 msec following stimulus onset. Trials contaminated by eyeblinks or eye movements were removed. An off-line program digitally filtered (bandpass=0.1-30 Hz, 12 db roll-off) responses to the rare and frequent events and constructed averaged event related responses for each electrode. At the FCz electrode, the MMN was measured by an automated algorithm that computed the summed amplitude, relative to the prestimulus baseline, over a 100-200 msec time window following the onsets of the rare (oddball) and frequent tones. MMN was then recalculated as the voltage difference between these responses. P300 amplitude was measured at the Pz electrode site as the peak amplitude between 250 and 500 msec following stimulus onset.
MMN and P300 amplitude reflect activation of multiple precortical and cortical pathways sensitive to stimulus novelty, short term memory, and attention. MMN was calculated as the voltage difference over 100-200 msec post-stimulus onset between the responses to the rare and frequent stimuli. […] P300 is not entirely independent of MMN. P300 was calculated as the peak amplitude relative to the average voltage of the waveform during the 50 msec prestimulus period. A more positive P300 response is indicative of improved cognitive function. P300 is maximal in amplitude when the eliciting stimulus is both rare and task relevant (i.e., attended). In the present study, the rare stimulus was not task relevant. In fact, the patient was instructed to perform no task and to ignore the stimuli. In the present study, therefore, P300 amplitude is very small in comparison to amplitudes recorded under active task conditions. The present P300 component is more similar to the small, frontally-generated P300a described by Knight and colleagues than the large, parietally-generated P300b described in most studies of attentional dysfunction in schizophrenia.
In the analysis of P50 and N100 the baseline value was the covariate and all values obtained during the treatment period were averaged together. Data loss from unidentifiable MMN and P300 components was minimal. These analyses were conducted upon data obtained from n=4 patients treated with placebo, n=7 patients treated with 0.3 mg of the test compound, and n=8 patients treated with 1.0 mg of the test compound.

[2] = maximum plasma concentration in human SAD/MAD clinical trials; format: in vivo; details: for Cmax: plasma, oral
Description: Multiple ascending dose (MAD) human clinical trials were conducted.
These values are 35-2000 times lower than would have anticipated if efficacy was to be achieved when the free plasma concentration reached the Ki or the ECref concentrations. […] These values are 9.4-667 times lower than expected.

[3] = system: normal subjects; experiment: CogState battery in MAD studies; format: in vivo, Human
Description: The impact of the test compound on cognition in normal subjects was assessed as described below. In these studies, subjects were treated with the test compound dissolved in cranberry juice. In the MAD (Multiple Ascending Dose) studies cognition was assessed using tests from the CogState battery (cogstate.com). […] The CogState battery is a proprietary computerized cognitive battery of tests measure various cognitive domains including: attention, identification capability, working memory, visual memory, and executive function. […] The magnitude of the effects were, in many cases, significant with effect sizes being >0.4 (a threshold effect size which is commonly accepted as having clinical significance).

[4] = maximum plasma concentration in human SAD/MAD clinical trials; format: in vivo; details: SAD, Day 1, 3.5 mg

Cl.O=C(N[C@H]1CN2CCC1CC2)c1cc2cccc(Cl)c2s1
MMN component vs placebo ([1]; 0.3 mg daily for 20 days): significantly (p<0.05) larger
P300 component vs placebo ([1]; 0.3 mg daily for 20 days): significantly (p<0.05) larger
MMN component vs placebo ([1]; 1.0 mg daily for 20 days): significantly (p<0.05) larger
P300 component vs placebo ([1]; 1.0 mg daily for 20 days): significantly (p<0.05) larger
MMN amplitude ([1]; 0.3 and 1.0 mg daily, dose-related, F=4.96, P=0.02, FIG. 3A): increased
P300 amplitude ([1]; 0.3 and 1.0 mg daily, dose-related, F=6.88, P=0.008, FIG. 3B): increased
maximum free plasma concentration ([2]; 0.3 mg dose, human): 0.073 to 0.283 nM
free plasma concentration ([2]; 1.0 mg doses, human): 0.237 to 1.06 nM
Cmax free ([2]; MAD1, Day 1, 1 mg): 0.252 nM
Cmax total ([2]; MAD1, Day 1, 1 mg): 1.96 nM
Cmax free ([2]; MAD1, Day 7, 1 mg): 0.853 nM
Cmax total ([2]; MAD1, Day 7, 1 mg): 6.61 nM
Cmax free ([2]; MAD1, Day 14, 1 mg): 1.06 nM
Cmax total ([2]; MAD1, Day 14, 1 mg): 8.23 nM
Cmax free ([2]; MAD2, Day 1, 0.1 mg): 0.022 nM
Cmax total ([2]; MAD2, Day 1, 0.1 mg): 0.172 nM
Cmax free ([2]; MAD2, Day 1, 1 mg): 0.251 nM
Cmax total ([2]; MAD2, Day 1, 1 mg): 1.943 nM
Cmax free ([2]; MAD2, Day 21, 0.1 mg): 0.093 nM
Cmax total ([2]; MAD2, Day 21, 0.1 mg): 0.724 nM
Cmax free ([2]; MAD2, Day 21, 1 mg): 0.974 nM
Cmax total ([2]; MAD2, Day 21, 1 mg): 7.547 nM
Cmax free ([2]; MAD3, Day 1, 0.3 mg): 0.073 nM
Cmax total ([2]; MAD3, Day 1, 0.3 mg): 0.568 nM
Cmax free ([2]; MAD3, Day 1, 1 mg): 0.221 nM
Cmax total ([2]; MAD3, Day 1, 1 mg): 1.71 nM
Cmax free ([2]; MAD3, Day 21, 0.3 mg): 0.283 nM
Cmax total ([2]; MAD3, Day 21, 0.3 mg): 2.195 nM
Cmax free ([2]; MAD3, Day 21, 1 mg): 0.800 nM
Cmax total ([2]; MAD3, Day 21, 1 mg): 6.20 nM
Cmax free ([2]; SAD, Day 1, 1 mg): 0.237 nM
Cmax total ([2]; SAD, Day 1, 1 mg): 1.84 nM
Cmax total ([2]; SAD, Day 1, 3.5 mg): 6.42 nM
Cmax ([2]; human, 0.1 mg, MAD2, Day 1, 0.1 mg): 0.055 ng/mL
Cmax ([2]; human, 0.1 mg, MAD2, Day 21, 0.1 mg): 0.232 ng/mL
Cmax ([2]; human, 0.3 mg, MAD3, Day 1, 0.3 mg): 0.182 ng/mL
Cmax ([2]; human, 0.3 mg, MAD3, Day 21, 0.3 mg): 0.704 ng/mL
Cmax ([2]; human, 1 mg, MAD1, Day 1, 1 mg): 0.63 ng/mL
Cmax ([2]; human, 1 mg, MAD1, Day 7, 1 mg): 2.12 ng/mL
Cmax ([2]; human, 1 mg, MAD1, Day 14, 1 mg): 2.64 ng/mL
Cmax ([2]; human, 1 mg, MAD2, Day 1, 1 mg): 0.623 ng/mL
Cmax ([2]; human, 1 mg, MAD2, Day 21, 1 mg): 2.42 ng/mL
Cmax ([2]; human, 1 mg, MAD3, Day 1, 1 mg): 0.547 ng/mL
Cmax ([2]; human, 1 mg, MAD3, Day 21, 1 mg): 1.99 ng/mL
Cmax ([2]; human, 1 mg, SAD, Day 1, 1 mg): 0.59 ng/mL
Cmax ([2]; human, 3.5 mg, SAD, Day 1, 3.5 mg): 2.06 ng/mL
effect sizes ([3]; CogState, in many cases): > 0.4
effect on attention ([3]; CogState, normal subjects): without having a stimulatory effect on attention
impact on visual motor skills, learning, executive function, and delayed memory ([3]; normal subjects, MAD studies, CogState): positive impact
cognition in CogState battery ([3]; normal subjects, MAD studies, daily dose as low as 1 mg): pro-cognitive effects
Cmax free [4]: 0.828 nM

From patent publication US8815933B2 (EnVivo Pharmaceuticals, Inc., priority 2008, dated 2014)
